# From US11932634B2 (Gilead Sciences, Inc., priority 2021, dated 2024)
# Assays:
# [1] = target: T1, human DGKα (Homo sapiens, UniProt P23743); test: DGKα Biochemical Activity Assay (ADP-Glo);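 also: recombinant enzyme converting diacylglycerol in lipid micelles with ATP, ADP formed detected by luminescence, IC50 from a four-parameter nonlinear fit, geometric mean across experiments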
# T1 construct: purchased Carna Biosciences'; inferred from the same paragraph's 'obtained from Carna Biosciences')
# T1 sequence (P23743 whole entry): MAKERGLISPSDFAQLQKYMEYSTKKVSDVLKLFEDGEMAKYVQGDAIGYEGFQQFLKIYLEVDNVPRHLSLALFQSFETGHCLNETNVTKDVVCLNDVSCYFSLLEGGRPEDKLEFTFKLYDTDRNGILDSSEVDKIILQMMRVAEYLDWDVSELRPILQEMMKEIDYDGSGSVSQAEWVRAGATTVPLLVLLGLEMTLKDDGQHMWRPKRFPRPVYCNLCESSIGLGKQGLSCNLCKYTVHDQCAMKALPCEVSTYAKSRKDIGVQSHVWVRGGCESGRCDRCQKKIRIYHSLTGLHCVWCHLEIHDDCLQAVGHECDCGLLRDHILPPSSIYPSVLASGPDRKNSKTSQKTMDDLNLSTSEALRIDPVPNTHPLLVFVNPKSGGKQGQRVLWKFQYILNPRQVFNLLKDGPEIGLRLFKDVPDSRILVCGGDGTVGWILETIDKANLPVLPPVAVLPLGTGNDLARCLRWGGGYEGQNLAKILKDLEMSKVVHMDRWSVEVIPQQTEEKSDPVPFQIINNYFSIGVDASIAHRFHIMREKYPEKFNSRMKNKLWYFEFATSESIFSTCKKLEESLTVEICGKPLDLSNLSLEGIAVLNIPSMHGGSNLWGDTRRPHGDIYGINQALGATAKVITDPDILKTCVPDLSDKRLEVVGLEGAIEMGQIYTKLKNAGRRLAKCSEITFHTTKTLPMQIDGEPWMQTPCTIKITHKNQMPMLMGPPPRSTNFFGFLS
# [2] = system: Jurkat NFκB-luciferase cells; test: Jurkat NFκB-Luciferase Assay; assay type: cell-based; conditions: Homo sapiens; Jurkat NFκB-luciferase cells activated with anti-CD3 antibody (OKT3), 2.5 hrs at 37° C., One-Glo Ex; geometric mean; read-out: DGK NFKb Luciferase EC50;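 also: bioluminescence read-out normalized to DMSO basal activation and to maximum enhancement at 1 µM compound, rising signal indicating stronger T-cell activation through DGKα inhibition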
# Description: The activity of compounds was tested in a cell based NFκB reporter assay. Jurkat cells that are stably expressing a luciferase reporter construct under the transcriptional control of a NFκB reporter element were activated with an anti-CD3 antibody and luciferase levels were measured with a bioluminescence readout.
# The day after, the excess antibody was washed out five times with 100 ul/well of assay medium (RPMI supplemented with 10% fetal bovine serum) using a Biotek EL406 instrument and leaving 20 µl of residual volume in each well. Jurkat NFκB-luciferase cells (Promega #) were harvested and diluted to 1 million cells/ml in assay medium. Sixty nanoliters of test compound dissolved in DMSO at various concentrations were dispensed into 384-well v-bottom polypropylene plates (Greiner) using a Labcyte Echo instrument. Thirty microliters of medium containing the Jurkat NFκB-luciferase cells were then dispensed using a Biotek MicroFlo instrument in each well of the compound-containing plate. The medium/cell/compound mixture was mixed with a Bravo instrument and 20 ul/well of the mixture was transferred to the anti-CD3-coated plate. The assay mixture was then incubated for 2.5 hrs at 37° C. followed by equilibration at 25° C. for 30 min. Forty microliters of One-Glo Ex (Promega) was then added to the assay mixture and luciferase activity was read on a Envision plate reader 7 minutes later.
# Bioluminescence data were normalized based on maximum enhancement (1 micromolar of compound) and on basal activation (DMSO) controls. Least squares curve fittings were performed using a four-parameter variable slope nonlinear regression model. […] EC50 values from multiple experiments were averaged by geometric mean and the standard deviation was calculated.
SMILES,IC50 [1],EC50 [2]
"[2H]C([2H])([2H])n1c(=O)nc(N(CC(F)F)c2cc(F)cc(C#CC3(C)CCCO3)c2)c2c(F)c(F)ccc21 (stereo not shown) [Example 66, 4-[N-(2,2-difluoroethyl)-3-fluoro-5-[2-(2-methyltetrahydrofuran-2-yl)ethynyl]anilino]-5,6-difluoro-1-(trideuteriomethyl)quinazolin-2-one]",3.27 nM,2.85 nM
"[2H]C([2H])([2H])n1c(=O)nc(N(CC(F)F)c2cc(F)cc(C#CC(C)(C)O)c2)c2c(F)cccc21 [Example 38, 4-[N-(2,2-difluoroethyl)-3-fluoro-5-(3-hydroxy-3-methyl-but-1-ynyl)anilino]-5-fluoro-1-(trideuteriomethyl)quinazolin-2-one]",16 nM,11.1 nM
"[2H]C([2H])([2H])n1c(=O)nc(N(CC(F)F)c2cc(F)cc(C#CC3(C(F)(F)F)CC3)c2)c2c(F)cccc21 [Example 22, 4-[N-(2,2-difluoroethyl)-3-fluoro-5-[2-[1-(trifluoromethyl)cyclopropyl]ethynyl]anilino]-5-fluoro-1-(trideuteriomethyl)quinazolin-2-one]",55.6 nM,1.61 nM
"[2H]C([2H])([2H])n1c(=O)nc(N(CC(F)F)c2ccnc(C#CC(C)(C)C#N)c2)c2c(F)cccc21 [Example 139, 4-[4-[2,2-difluoroethyl-[5-fluoro-2-oxo-1-(trideuteriomethyl)quinazolin-4-yl]amino]-2-pyridyl]-2,2-dimethyl-but-3-ynenitrile]",18.3 nM,15.5 nM
"CC(C)(O)C#Cc1cccc2c1CCCCN2c1nc(=O)[nH]c2cccc(F)c12 [Example 81, 5-fluoro-4-[6-(3-hydroxy-3-methyl-but-1-ynyl)-2,3,4,5-tetrahydro-1-benzazepin-1-yl]-1H-quinazolin-2-one]",3.6 nM,2.5 nM
"O=c1nc(N2CCCCc3c(Br)cncc32)c2c(F)c(F)ccc2[nH]1 [Example 148, 4-(6-bromo-2,3,4,5-tetrahydro-1H-pyrido[3,4-b]azepin-1-yl)-5,6-difluoroquinazolin-2(1H)-one]",44.1 nM,2.77 nM
"Cn1c(=O)nc(N(CC(F)(F)F)c2cc(F)cc(C#CC3(C(F)(F)F)CC3)c2)c2ccc(Cl)cc21 [Example 32, 7-chloro-4-[3-fluoro-N-(2,2,2-trifluoroethyl)-5-[2-[1-(trifluoromethyl)cyclopropyl]ethynyl]anilino]-1-methyl-quinazolin-2-one]",123 nM,1.02 nM
"Cn1c(=O)nc(N(CC(F)(F)F)c2cc(F)cc(C#CC3(C(F)(F)F)CC3)c2)c2cc(F)ccc21 [Example 30, 6-fluoro-4-[3-fluoro-N-(2,2,2-trifluoroethyl)-5-[2-[1-(trifluoromethyl)cyclopropyl]ethynyl]anilino]-1-methyl-quinazolin-2-one]",27.1 nM,1.94 nM
"[2H]C([2H])([2H])n1c(=O)nc(N2CCOCc3c(C#CC(C)(C)NC(=O)C4(C(F)F)CC4)cccc32)c2c(F)cccc21 [Example 178, 1-(difluoromethyl)-N-(4-(1-(5-fluoro-1-(methyl-d3)-2-oxo-1,2-dihydroquinazolin-4-yl)-1,2,3,5-tetrahydrobenzo[e][1,4]oxazepin-6-yl)-2-methylbut-3-yn-2-yl)cyclopropane-1-carboxamide]",6.36 nM,9.33 nM
"CC1(C#Cc2cccc3c2COCCN3c2nc(=O)[nH]c3cccc(F)c23)COC1 [Example 93, 5-fluoro-4-(6-((3-methyloxetan-3-yl)ethynyl)-2,3-dihydrobenzo[e][1,4]oxazepin-1(5H)-yl)quinazolin-2(1H)-one]",6.6 nM,7.25 nM
"CN(c1cncc(C#CC2(C(F)(F)F)CC2)n1)c1nc(=O)[nH]c2cc(Cl)ccc12 [Example 13, 7-chloro-4-[methyl-[6-[2-[1-(trifluoromethyl)cyclopropyl]ethynyl]pyrazin-2-yl]amino]-1H-quinazolin-2-one]",20.6 nM,1.16 nM
